In patent publication US7880007B2, “Bicyclic substituted phenyl piperidine modulators of muscarinic receptors” (Vertex Pharmaceuticals Incorporated, priority 2004, dated 2011):

How the values were obtained:
Type in all cases: cell-based
[1] = molecular target: T1, M1 muscarinic receptor (Homo sapiens, UniProt P11229); experiment: Functional mobilization of intracellular calcium (FLIPR), M1-CHO cells; details: for M1 Activity: M1-CHO cells, calcium mobilization (FLIPR)
T1 construct: expressed in transfected cells; host or cells: CHO (M1-CHO)
T1 sequence (P11229 1-460): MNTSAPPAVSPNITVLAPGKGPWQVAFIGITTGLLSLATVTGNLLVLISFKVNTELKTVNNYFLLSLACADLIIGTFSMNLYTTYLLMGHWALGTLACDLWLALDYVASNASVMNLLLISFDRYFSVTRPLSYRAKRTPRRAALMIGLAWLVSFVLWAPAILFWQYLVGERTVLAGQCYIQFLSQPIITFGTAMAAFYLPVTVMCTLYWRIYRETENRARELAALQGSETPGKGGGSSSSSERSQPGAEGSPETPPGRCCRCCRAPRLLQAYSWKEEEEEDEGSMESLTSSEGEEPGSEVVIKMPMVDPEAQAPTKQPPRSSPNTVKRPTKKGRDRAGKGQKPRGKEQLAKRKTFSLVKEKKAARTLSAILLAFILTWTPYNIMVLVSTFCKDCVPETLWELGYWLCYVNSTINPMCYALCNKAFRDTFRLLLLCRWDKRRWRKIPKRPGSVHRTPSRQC
Procedure, shortened: (§1)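 Calcium mobilisation read by FLIPR over 60 s (ex 488/em 540 nm) in recombinant muscarinic CHO lines loaded with calcium dye plus 1 mM probenecid. Compounds tested as agonists alone, or as inhibitors against EC80 carbachol after 15 min pre-incubation or co-addition; 0.5% DMSO; efficacy scaled to carbachol maximal response.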

[2] = molecular target: T2, M4 muscarinic receptor (Homo sapiens, UniProt P08173); experiment: Functional mobilization of intracellular calcium (FLIPR), M4-CHO cells; details: for M4 Activity: M4-CHO cells, calcium mobilization (FLIPR)
T2 construct: expressed in transfected cells; host or cells: CHO (M4-CHO)
T2 sequence (P08173 1-479): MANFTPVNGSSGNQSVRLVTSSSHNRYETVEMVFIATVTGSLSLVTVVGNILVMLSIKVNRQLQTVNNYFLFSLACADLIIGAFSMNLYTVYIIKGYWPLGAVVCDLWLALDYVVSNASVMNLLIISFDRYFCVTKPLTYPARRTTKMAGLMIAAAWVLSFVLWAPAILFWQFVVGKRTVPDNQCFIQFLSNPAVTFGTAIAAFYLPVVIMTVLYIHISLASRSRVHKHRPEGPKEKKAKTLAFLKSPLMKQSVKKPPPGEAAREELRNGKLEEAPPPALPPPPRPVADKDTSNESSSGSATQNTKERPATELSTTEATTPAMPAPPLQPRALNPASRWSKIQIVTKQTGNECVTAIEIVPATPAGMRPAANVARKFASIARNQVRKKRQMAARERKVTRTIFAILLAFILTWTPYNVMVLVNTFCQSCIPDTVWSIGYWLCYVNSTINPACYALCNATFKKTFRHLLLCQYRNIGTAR
Procedure, shortened: as §1

[3] = molecular target: T3, M2 muscarinic receptor (Homo sapiens, UniProt P08172); experiment: Functional mobilization of intracellular calcium (FLIPR), M2-CHO cells; details: for M2 Activity: M2-CHO cells, calcium mobilization (FLIPR)
T3 construct: expressed in transfected cells; host or cells: CHO (M2-CHO)
T3 sequence (P08172 1-466): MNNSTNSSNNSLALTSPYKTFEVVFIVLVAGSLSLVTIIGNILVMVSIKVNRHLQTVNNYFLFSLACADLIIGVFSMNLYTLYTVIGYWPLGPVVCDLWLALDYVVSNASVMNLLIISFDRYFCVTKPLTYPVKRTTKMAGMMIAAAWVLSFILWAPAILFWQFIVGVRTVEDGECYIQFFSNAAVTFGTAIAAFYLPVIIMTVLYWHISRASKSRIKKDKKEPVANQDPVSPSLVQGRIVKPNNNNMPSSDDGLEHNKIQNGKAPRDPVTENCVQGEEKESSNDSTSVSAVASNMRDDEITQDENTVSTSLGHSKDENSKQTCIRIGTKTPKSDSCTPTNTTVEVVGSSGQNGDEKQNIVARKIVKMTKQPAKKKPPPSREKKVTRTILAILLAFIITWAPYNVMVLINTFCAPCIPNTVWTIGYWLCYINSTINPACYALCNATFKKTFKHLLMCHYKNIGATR
Procedure, shortened: as §1

[4] = molecular target: T4, M3 muscarinic receptor (Homo sapiens, UniProt P20309); experiment: Functional mobilization of intracellular calcium (FLIPR), M3-CHO cells; details: for M3 Activity: M3-CHO cells, calcium mobilization (FLIPR)
T4 construct: expressed in transfected cells; host or cells: CHO (M3-CHO)
Procedure, shortened: as §1

[5] = 100% efficacy = maximum response obtained with the Carbachol control
[6] = 100% efficacy is the maximum response obtained with the Carbachol control

T4 sequence (P20309 whole entry): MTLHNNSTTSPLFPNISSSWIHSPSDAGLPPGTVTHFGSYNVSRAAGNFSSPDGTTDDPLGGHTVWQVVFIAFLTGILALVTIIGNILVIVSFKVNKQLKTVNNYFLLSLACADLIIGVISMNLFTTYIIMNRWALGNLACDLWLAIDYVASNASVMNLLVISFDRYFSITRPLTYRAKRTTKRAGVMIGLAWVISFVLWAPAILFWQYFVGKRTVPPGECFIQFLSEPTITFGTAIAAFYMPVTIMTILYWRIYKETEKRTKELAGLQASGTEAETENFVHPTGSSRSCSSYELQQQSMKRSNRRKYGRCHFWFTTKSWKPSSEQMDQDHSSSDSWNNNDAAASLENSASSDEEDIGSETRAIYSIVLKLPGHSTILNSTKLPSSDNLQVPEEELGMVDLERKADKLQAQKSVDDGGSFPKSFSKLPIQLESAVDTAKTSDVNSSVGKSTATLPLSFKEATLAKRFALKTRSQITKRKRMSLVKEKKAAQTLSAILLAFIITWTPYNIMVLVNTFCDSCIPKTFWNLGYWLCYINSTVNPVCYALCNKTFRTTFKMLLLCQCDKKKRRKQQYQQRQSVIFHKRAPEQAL

Row | SMILES | Emax [1, 5] | M1 Activity [1] | Emax [2, 5] | M4 Activity [2] | Emax [3, 5] | M2 Activity [3] | Emax [4, 5] | M3 Activity [4] | Emax [1, 6] | Emax [2, 6] | Emax [3, 6] | Emax [4, 6] | M1 Efficacy [1, 5] | M4 Efficacy [2, 5] | M2 Efficacy [3, 5] | M3 Efficacy [4, 5]
1 | COc1ccccc1[C@@H]1CCN([C@@H]2C[C@H]3CC[C@H]2C3)C[C@H]1O [Compound 154] | < 25% | + (activity was measured to be greater than 5.0 μM) | 25 to 100% | + (activity was measured to be greater than 5.0 μM) | < 25% | + (activity was measured to be greater than 5.0 μM) | < 25% | + (activity was measured to be greater than 5.0 μM) |  |  |  |  |  |  |  | 
2 | COc1ccccc1C1CCN(C2CC3CC[C@H]2C3)CC1 (stereo in doubt) [Compound 397, 1-((1S,2R,4R)-bicyclo[2.2.1]heptan-2-yl)-4-(2-methoxyphenyl)piperidine] |  | ++ (activity was measured to be from 1.0 μM to 5.0 μM) |  | +++ (activity was measured to be less than 1.0 μM) |  | + (activity was measured to be greater than 5.0 μM) |  | + (activity was measured to be greater than 5.0 μM) | 25 to 100% | 25 to 100% | < 25% | < 25% |  |  |  | 
3 | Cc1ccccc1C1CCN(C2CC3CCC(C3)C2)CC1 (stereo not drawn) [Compound 86] | 25 to 100% | ++ (activity was measured to be from 1.0 μM to 5.0 μM) | 25 to 100% | +++ (activity was measured to be less than 1.0 μM) | < 25% | + (activity was measured to be greater than 5.0 μM) | < 25% | + (activity was measured to be greater than 5.0 μM) |  |  |  |  |  |  |  | 
4 | CCOC(=O)N1CCC(N2CCC(F)(c3cc(Cl)ccc3OC)CC2)CC1 [Compound 368] |  | ++ (activity was measured to be from 1.0 μM to 5.0 μM) |  | +++ (activity was measured to be less than 1.0 μM) |  | ++ (activity was measured to be from 1.0 μM to 5.0 μM) |  | + (activity was measured to be greater than 5.0 μM) |  |  |  |  | ++ (efficacy was calculated to be from 100% to 25%) | ++ (efficacy was calculated to be from 100% to 25%) | ++ (efficacy was calculated to be from 100% to 25%) | + (efficacy was calculated to be less than 25%)
5 | CCOC(=O)N1C2CCC1CC(N1CCC(c3ccc(F)cc3OC)CC1)C2 (stereo not drawn) [Compound 179] | 25 to 100% | +++ (activity was measured to be less than 1.0 μM) | 25 to 100% | +++ (activity was measured to be less than 1.0 μM) | < 25% | + (activity was measured to be greater than 5.0 μM) | < 25% | + (activity was measured to be greater than 5.0 μM) |  |  |  |  |  |  |  | 
6 | CCOC(=O)N1C2CCC1CC(N1CCC(c3cc(-c4ccc(C(=O)NC)c(Cl)c4)ccc3OC)CC1)C2 (stereo not drawn) [Compound 226] | < 25% | + (activity was measured to be greater than 5.0 μM) | 25 to 100% | ++ (activity was measured to be from 1.0 μM to 5.0 μM) | < 25% | + (activity was measured to be greater than 5.0 μM) | < 25% | + (activity was measured to be greater than 5.0 μM) |  |  |  |  |  |  |  | 
7 | COc1ccc(Cl)cc1C1CCN(CC2CC3CCC2CC3)CC1 (stereo not drawn) [Compound 280] | < 25% | + (activity was measured to be greater than 5.0 μM) | 25 to 100% | ++ (activity was measured to be from 1.0 μM to 5.0 μM) | < 25% | + (activity was measured to be greater than 5.0 μM) | < 25% | + (activity was measured to be greater than 5.0 μM) |  |  |  |  |  |  |  | 
8 | CCOC(=O)N1CCC(CN2CCC(c3cc(Cl)ccc3OC)CC2)CC1 [Compound 14] | 25 to 100% | +++ (activity was measured to be less than 1.0 μM) | 25 to 100% | +++ (activity was measured to be less than 1.0 μM) | 25 to 100% | +++ (activity was measured to be less than 1.0 μM) | < 25% | + (activity was measured to be greater than 5.0 μM) |  |  |  |  |  |  |  | 
9 | COc1ccc(C)cc1C1CCN(C2C[C@H]3CC[C@H](C2)C3)CC1 (stereo partly drawn) [Compound 246] | 25 to 100% | ++ (activity was measured to be from 1.0 μM to 5.0 μM) | 25 to 100% | +++ (activity was measured to be less than 1.0 μM) | 25 to 100% | + (activity was measured to be greater than 5.0 μM) | < 25% | + (activity was measured to be greater than 5.0 μM) |  |  |  |  |  |  |  | 
10 | COc1ccc(Cl)cc1C1(F)CCN(C2CCCCCC2)CC1 [Compound 161] | 25 to 100% | + (activity was measured to be greater than 5.0 μM) | 25 to 100% | + (activity was measured to be greater than 5.0 μM) | 25 to 100% | + (activity was measured to be greater than 5.0 μM) | < 25% | + (activity was measured to be greater than 5.0 μM) |  |  |  |  |  |  |  | 
11 | COc1ccc(-c2ccc3c(c2)OCO3)cc1C1CCN(C2CCOCC2)CC1 [Compound 52] | < 25% | + (activity was measured to be greater than 5.0 μM) | 25 to 100% | + (activity was measured to be greater than 5.0 μM) | < 25% | + (activity was measured to be greater than 5.0 μM) | < 25% | + (activity was measured to be greater than 5.0 μM) |  |  |  |  |  |  |  | 
12 | COc1ccc(F)cc1C1CCN([C@H]2C[C@H]3CC[C@H]2C3)CC1 [Compound 78] | 25 to 100% | ++ (activity was measured to be from 1.0 μM to 5.0 μM) | 25 to 100% | +++ (activity was measured to be less than 1.0 μM) | < 25% | + (activity was measured to be greater than 5.0 μM) | < 25% | + (activity was measured to be greater than 5.0 μM) |  |  |  |  |  |  |  | 
